Results published in patent US7550431B2, “Spatially-defined macrocycles incorporating peptide bond surrogates” (Tranzyme Pharma Inc., priority 2003, dated 2009).

Biological target: T1, human motilin receptor (Homo sapiens, UniProt O43193)
T1 construct: purchased PerkinElmer (SignalScreen) 6110544; host or cells: CHO cells, stably transfected (membranes)
Assay: Competitive radioligand binding assay (motilin receptor), Method B1
Conditions: [125I]-motilin competition, CHO cell membranes
Description: (§1) The compounds of the present invention were evaluated for their ability to interact at the human motilin receptor and the human ghrelin receptor utilizing competitive radioligand binding assays as described in Method B1 and B2, respectively. Further characterization of the interaction can be performed utilizing the functional assays described in Methods B3 and B4 for the motilin and ghrelin receptors, respectively. All of these methods can be conducted, if so desired, in a high throughput manner to permit the simultaneous evaluation of many compounds.
Competitive Radioligand Binding Assay (Motilin Receptor)
• Membranes were prepared from CHO cells stably transfected with the human motilin receptor and utilized at a quantity of 1.5 μg/assay point. [PerkinElmer® SignalScreen® Product #6110544, Perkin Elmer, Inc., Wellesley, Mass.] • [^125I]-Motilin (PerkinElmer®, #NEX-378); final concentration: 0.04-0.06 nM • Motilin (Bachem®, #H-4385, Bachem AG Corporation, Bubendorf, Switzerland); final concentration: 1 μM • Multiscreen® Harvest plates-GF/B (Millipore®, #MAHFB1H60, Millipore Corporation, Billerica, Mass.) • Deep-well polypropylene titer plate (Beckman Coulter®, #267006, Beckman Coulter, Inc., Fullerton, Calif.) • TopSeal-A (PerkinElmer®, #6005185) • Bottom seal (Millipore®, #MATAH0P00) • MicroScint™-0 (PerkinElmer®, #6013611) • Binding Buffer: 50 mM Tris-HCl (pH 7.4), 10 mM MgCl2, 1 mM EDTA, 0.1% BSA
Assay Volumes: • 150 μl of membranes diluted in binding buffer • 10 μl of compound diluted in binding buffer • 10 μl of radioligand ([^125I]-Motilin) diluted in binding buffer
(§2) Compounds were provided frozen on dry ice at a stock concentration of 10 mM diluted in 100% DMSO and stored at −20° C. until the day of testing. On the test day, compounds were allowed to thaw at room temperature and than diluted in assay buffer according to the desired test concentrations. Under these conditions, the maximum final DMSO concentration in the assay was 0.5%.
In deep-well plates, diluted cell membranes (1.5 μg/mL) are combined with 10 μl of either binding buffer (total binding, N=5), 1 μM motilin (non-specific binding, N=3) or the appropriate concentration of test compound. The reaction is initiated by addition of 10 μl of [^125I]-motilin (final conc. 0.04-0.06 nM) to each well. Plates are sealed with TopSeal-A, vortexed gently and incubated at room temperature for 2 hours. The reaction is arrested by filtering samples through pre-soaked (0.3% polyethyleneimine, 2 h) Multiscreen® Harvest plates using a Tomtec ® Harvester (TomTec, Inc., Hamden Conn.), washed 9 times with 500 μl of cold 50 mM Tris-HCl (pH 7.4), and than plates are air-dried in a fumehood for 30 minutes. A bottom seal is applied to the plates prior to the addition of 25 μl of MicroScint™-0 to each well. Plates are than sealed with TopSeal-A and counted for 30 sec per well on a TopCount® Microplate Scintillation and Luminescence Counter (PerkinElmer®) where results are expressed as counts per minute (cpm).
Data are analyzed by GraphPad Prism® (GraphPad Software, Inc., San Diego, Calif.) using a variable slope non-linear regression analysis.
[formula] where total and non-specific binding represent the cpm obtained in the absence or presence of 1 μM motilin, respectively.

T1 sequence (O43193 whole entry): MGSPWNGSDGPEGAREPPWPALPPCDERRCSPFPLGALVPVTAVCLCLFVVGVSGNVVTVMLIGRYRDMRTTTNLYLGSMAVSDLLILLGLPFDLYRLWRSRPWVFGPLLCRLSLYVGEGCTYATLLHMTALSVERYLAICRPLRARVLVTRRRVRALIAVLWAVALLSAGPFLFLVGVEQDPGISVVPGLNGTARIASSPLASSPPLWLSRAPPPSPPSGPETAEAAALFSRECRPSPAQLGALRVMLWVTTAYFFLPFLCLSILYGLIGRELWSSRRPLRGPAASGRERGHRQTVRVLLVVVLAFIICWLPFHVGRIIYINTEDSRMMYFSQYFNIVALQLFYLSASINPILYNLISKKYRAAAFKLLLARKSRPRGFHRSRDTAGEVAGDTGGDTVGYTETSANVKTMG

**Q.** Which Ki does the source give for CC(C)[C@H]1CC[C@@H](Cc2cccc(Cl)c2)NCCOc2ccccc2CCCNC(=O)[C@H](CNC(=N)N)NC1=O [Compound 101] here?
**A.** Its Ki is 10 to 100 nM.

**Q.** Which Ki does the source give for CCC[C@@H]1CC[C@@H](C(C)C)NC(=O)[C@@H](Cc2cccc(Cl)c2)NCCOc2ccccc2CCCNC1=O [Compound 103] here?
**A.** The Ki was 1000 to 10000 nM.

**Q.** For CCC[C@@H]1/C=C/[C@@H](C(C)C)NC(=O)[C@@H](Cc2cccc(Cl)c2)NCCOc2ccccc2CCCNC1=O [Compound 104], which Ki is on record?
**A.** Its Ki is 1000 to 10000 nM.

**Q.** With CCC[C@@H]1NC(=O)[C@@H](C(C)C)/C=C/[C@@H](Cc2ccc(OC)cc2)NCCOc2ccccc2CCCNC1=O [Compound 105] as the compound, how does the Ki read?
**A.** Its Ki is 1000 to 10000 nM.

**Q.** With CCC[C@@H]1NC(=O)[C@@H](C(C)C)CC[C@@H](Cc2ccc(OC)cc2)NCCOc2ccccc2CCCNC1=O [Compound 109] as the compound, how does the Ki read?
**A.** The Ki was 100 to 1000 nM.

**Q.** CCC[C@@H]1NC(=O)C(C(C)C)CC[C@@H](Cc2ccc(OC)cc2)NCCOc2ccccc2CCCNC1=O (stereo partly shown) [Compound 110] was tested. Which Ki did it give?
**A.** The Ki was 1000 to 10000 nM.

**Q.** CCC[C@@H]1NC(=O)[C@@H](C(C)C)OC(=O)[C@@H](Cc2cccc3ccccc23)NCCOc2ccccc2CCCNC1=O [Compound 111] was tested. Which Ki did it give?
**A.** The Ki was 100 to 1000 nM.

**Q.** With CCC[C@@H]1NC(=O)C(C(C)C)OC(=O)[C@@H](Cc2ccc(OC)cc2)NCCOc2ccccc2CCCNC1=O (stereo partly shown) [Compound 112] as the compound, how does the Ki read?
**A.** Its Ki is 100 to 1000 nM.

**Q.** For CCC[C@@H]1NC(=O)[C@@H](C(C)C)NC(=O)[C@@H](Cc2ccc(O)cc2)NCCOc2ccccc2CCCOC1=O [Compound 115], which Ki is on record?
**A.** The Ki was 1000 to 10000 nM.

**Q.** CC(C)C[C@H]1C(=O)NCCCc2ccccc2OCCN[C@H](Cc2ccc(O)cc2)C(=O)N[C@H](C(C)C)C(=O)N1C [Compound 116] was tested. Which Ki did it give?
**A.** The Ki was 100 to 1000 nM.

**Q.** CCC[C@@H]1NC(=O)[C@@H](C(C)C)OC(=O)[C@@H](Cc2ccc(O)cc2)NCCOc2ccccc2CCCNC1=O [Compound 119] was tested. Which Ki did it give?
**A.** Its Ki is 100 to 1000 nM.

Biological target: T2, human ghrelin receptor (hGHS-R1a) (Homo sapiens, UniProt Q92847)
T2 construct: purchased PerkinElmer BioSignal RBHGHSM, lot#1887; host or cells: HEK-293 cells, stably transfected (membranes GHS-R/HEK 293)
Assay: Competitive radioligand binding assay (ghrelin receptor), Method B2
Conditions: [125I]-ghrelin competition, HEK-293 cell membranes
Description: as §1
Competitive Radioligand Binding Assay (Ghrelin Receptor)
The competitive binding assay at the human growth hormone secretagogue receptor (hGHS-R1a) was carried out analogously to assays described in the literature. (Bednarek M A et al. (2000), Structure-function studies on the new growth hormone-releasing peptide ghrelin: minimal sequence of ghrelin necessary for activation of growth hormone secretagogue receptor 1a; J Med Chem 43:4370-4376. Palucki B L et al. (2001), Spiro(indoline-3,4′-piperidine) growth hormone secretagogues as ghrelin mimetics; Bioorg Med Chem Lett 11:1955-1957.)
• Membranes (GHS-R/HEK 293) were prepared from HEK-293 cells stably transfected with the human ghrelin receptor (hGHS-R1a).
as §2, with “−80°” for “−20°”, “rt overnight” for “room temperature”, “then” for “than”, “maximal” for “maximum”, “0.1%.” for “0.5%.”
In deep-well plates, 220 μl of diluted cell membranes (final concentration: 0.71 μg/well) were combined with 40 μl of either binding buffer (total binding, N=5), 1 μM ghrelin (non-specific binding, N=3) or the appropriate concentration of test compound (N=2 for each test concentration). […] Plates were sealed with TopSeal-A, vortexed gently and incubated at rt for 30 min. The reaction was arrested by filtering samples through Multiscreen® Harvest plates (pre-soaked in 0.5% polyethyleneimine) using a Tomtec® Harvester, washed 9 times with 500 μL of cold 50 mM Tris-HCl (pH 7.4, 4° C.), and then plates were air-dried in a fumehood for 30 min. A bottom seal was applied to the plates prior to the addition of 25 μl of MicroScint™-0 to each well. Plates were than sealed with TopSeal-A and counted for 30 sec per well on a TopCount® Microplate Scintillation and Luminescence Counter (PerkinElmer®) using a count delay of 60 sec. Results were expressed as counts per minute (cpm).
Data were analyzed by GraphPad Prism® (GraphPad Software, Inc., San Diego, Calif.) using a variable slope non-linear regression analysis.

T2 sequence (Q92847 whole entry): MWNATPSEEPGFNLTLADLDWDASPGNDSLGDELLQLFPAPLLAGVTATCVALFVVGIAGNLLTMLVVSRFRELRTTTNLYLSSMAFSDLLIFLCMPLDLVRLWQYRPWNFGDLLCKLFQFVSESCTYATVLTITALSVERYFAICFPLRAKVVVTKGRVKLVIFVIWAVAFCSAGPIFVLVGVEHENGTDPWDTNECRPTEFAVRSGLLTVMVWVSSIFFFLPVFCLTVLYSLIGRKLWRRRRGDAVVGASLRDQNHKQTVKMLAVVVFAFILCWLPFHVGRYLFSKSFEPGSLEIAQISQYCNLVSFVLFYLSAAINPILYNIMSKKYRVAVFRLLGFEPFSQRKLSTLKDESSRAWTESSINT

**Q.** With C[C@@H]1NCCOc2ccccc2CCCNC(=O)[C@@H](Cc2ccccc2)NC(=O)CN(C)C1=O [Compound 124] as the compound, how does the Ki read?
**A.** Its Ki is 1000 to 10000 nM.

**Q.** Which Ki does the source give for CN1CC(=O)N[C@H](Cc2ccccc2)C(=O)NCCCc2ccccc2OCCN[C@@H](CCCCN)C1=O [Compound 127] here?
**A.** The Ki was 1000 to 10000 nM.

**Q.** How did the Ki turn out when CN1CC(=O)N[C@H](Cc2ccccc2)C(=O)NCCCc2ccccc2OCCN[C@@H](Cc2ccccc2)C1=O [Compound 128] was run?
**A.** The Ki was 100 to 1000 nM.

**Q.** CCC(C)[C@@H]1NCCOc2ccccc2CCCNC(=O)[C@@H](Cc2ccccc2)NC(=O)[C@H](C(C)C)N(C)C1=O (stereo partly shown) [Compound 131] was tested. Which Ki did it give?
**A.** The Ki was 100 to 1000 nM.

**Q.** How did the Ki turn out when CCC(C)[C@@H]1NCCOc2ccccc2CCCNC(=O)[C@@H](Cc2ccccc2)NC(=O)[C@@H](C(C)CC)N(C)C1=O (stereo partly shown) [Compound 136] was run?
**A.** Its Ki is 1000 to 10000 nM.

**Q.** Which Ki does the source give for CCC(C)[C@@H]1NCCOc2ccccc2CCCNC(=O)[C@@H](Cc2ccccc2)NC(=O)[C@H](C(C)CC)N(C)C1=O (stereo partly shown) [Compound 138] here?
**A.** Its Ki is 100 to 1000 nM.

**Q.** Which Ki does the source give for C[C@@H]1C(=O)N[C@H](Cc2ccc(F)cc2)C(=O)NCCOCCOCCN[C@@H](C2CC2)C(=O)N1C [Compound 140] here?
**A.** The Ki was 1000 to 10000 nM.

**Q.** With C[C@@H]1C(=O)N[C@H](Cc2ccc(F)cc2)C(=O)NCCOc2cccc(c2)OCCN[C@@H](C2CC2)C(=O)N1C [Compound 149] as the compound, how does the Ki read?
**A.** Its Ki is 100 to 1000 nM.

**Q.** For CCC[C@@H]1NCc2cccc(c2)CNC(=O)[C@@H](Cc2ccccc2)NC(=O)CN(C)C1=O [Compound 158], which Ki is on record?
**A.** Its Ki is 1000 to 10000 nM.

**Q.** CCC(C)[C@@H]1NCCOc2ccccc2/C=C/CNC(=O)N(Cc2ccccc2)NC(=O)[C@@H](C)N(C)C1=O (stereo partly shown) [Compound 165] was tested. Which Ki did it give?
**A.** Its Ki is 10 to 100 nM.

**Q.** CCC[C@H]1C(=O)N(C)[C@H](C)C(=O)N[C@H](Cc2ccccc2)C(=O)NCCCc2ccccc2OCCN1C [Compound 167] was tested. Which Ki did it give?
**A.** Its Ki is 100 to 1000 nM.
